Where “and” joins values, the source holds several entries; their conditions need not be identical. Equal entries are not always repeated.
What was measured:
αvβ3 integrins = target: T1, αvβ3 integrins (Homo sapiens, UniProt P05106+P06756); assay: Competitive inhibition of RGDfK-GNR binding with echistatin; assay type: cell-based; conditions: echistatin 50 nM co-incubation; HUVECs; 4° C. for 2 hours; binding buffer
T1 construct: endogenous in cells; host or cells: HUVEC
Procedure: Confirmation of RGDfK-GNR specificity to αvβ3 integrins was performed by competitive inhibition of binding with echistatin. In brief, HUVEC cells were grown to 50% confluency on fibronectin coated cover slips. The media was then removed and replaced with cold binding buffer (20 mmol/L Tris, pH 7.4, 150 mmol/L NaCl, 2 mmol/L CaCl2, 1 mmol/L MgCl2, 1 mmol/L MnCl2, 0.1% bovine serum albumin) containing RGDfK-GNRs (10 μg/ml) and HUVECs were co-incubated at 4° C. for 2 hours with or without 50 nM echistatin (Sigma-Aldrich). Cells were then washed three times with cold binding buffer, mounted to a slide and imaged by high-resolution dark field microscopy.

[1] = Evans blue dye (EBD) delivery to tumor, thermal enhancement ratio (TER); assay type: in vivo, mice
Procedure: Mouse sarcoma S-180 cells were propagated by intraperitoneal injection (5×10^6 S-180 cells in 1 ml phosphate buffered saline (PBS)) in female CD-1 mice (4-6 weeks old) and allowed to grow until 15% weight gain was observed. Animals were then euthanized by CO2 gas inhalation and the cells were harvested from the abdominal cavity. The cells were then washed to remove blood, diluted and subcutaneously injected into each flank of the animal (2×10^6 cells/flank in 200 μl PBS) while anesthetized with isofluorane. Tumors were then allowed to grow until average tumor volume reached 50-100 mm^3 (usually 7-10 days).
The animals were separated randomly into groups. Half received 200 μl of GNRs (9.6 mg/kg, OD=120) and the other half saline by intravenous injection through the tail vein. After 24 hours, enough time for the GNRs to accumulate in the tumor at 1.22% injected dosed based on previous experiments and other reports in the literature (Dickerson et al., 2008), the animals were anesthetized and the areas around the tumors were shaved and swabbed with 50% propylene glycol to enhance laser penetration depth. After 20 minutes EBD (10 mg/kg in 200 μl saline) was injected intravenously and a 33 gauge needle thermocouple (Omega #HYPO-33-1-T-G-60-SMPW-M) was inserted into the center of the tumor to monitor tumor temperatures. After roughly 10 seconds that temperature data was collected, an 808 nm fiber coupled laser diode (Oclaro #BMU6-808-02-R01) with collimating lens (Thorlabs #F810SMA-780, spot size=7 mm) was directed over the right tumor and radiated. Two different laser powers were used in this study (1.6 and 1.2 W/cm^2) such that one group received severe and the other moderate tumor hyperthermia. After 10 minutes of radiation, the laser was turned off and tumors were allowed to cool for two minutes before removal of the temperature probe.
After the animals were allowed to rest for 5 hours, enough time for the EBD to be cleared from the blood, the animals were sacrificed by CO2 inhalation. Both tumors were collected, weighed and the EBD was extracted in 1.5 ml of formamide for 48 hrs at 60° C. The EBD content was then measured spectrophotometrically at 620 nm and divided by the weight of the tumor. The extravasation of EBD was then calculated as a ratio of the right (treated) to left (untreated) tumor and expressed as a thermal enhancement ratio (TER).

Row | Compound | Inhibition of RGDfK-GNR binding to the cell's surface (αvβ3 integrins) | TER (EBD in treated/untreated tumor) ([1]; Laser alone (no GNRs), 1.2 W/cm^2) | TER (EBD in treated/untreated tumor) ([1]; Laser alone (no GNRs), 1.6 W/cm^2) | TER (EBD in treated/untreated tumor) ([1]; PPTT (GNRs + laser), 1.2 W/cm^2) | TER (EBD in treated/untreated tumor) ([1]; PPTT (GNRs + laser), 1.6 W/cm^2, EBD 10 mg/kg i.v., 5 hours) | TER ([1]; laser treatment without the presence of GNRs (power not specified))
1 | echistatin | almost complete inhibition | – | – | – | – | –
2 | Cc1cc(-c2ccc(/N=N/c3ccc4c(S(=O)(=O)[O-])cc(S(=O)(=O)[O-])c(N)c4c3O)c(C)c2)ccc1/N=N/c1ccc2c(S(=O)(=O)[O-])cc(S(=O)(=O)[O-])c(N)c2c1O.[Na+].[Na+].[Na+].[Na+] [EBD, Evans blue dye] | – | 0.94 ± 0.25 | 1.05 ± 0.15 | 1.68 and 1.68 ± 0.65 | 1.82 and 1.82 ± 0.40 | around 1.0

Reference: patent US20170290915A1, “METHODS FOR DELIVERING AN ANTI-CANCER AGENT TO A TUMOR” (priority 2010, published 2017)
